According to PubChem BioAssay AID248 (DTP/NCI, 2004):
Several values for one entry are separate records, joined by “and”; a condition that tells them apart may be missing. Equal values may be shown once. Inconclusive results and toxic doses are left out. No stated cut-off is given here; in the data, active means T/C of 150% or more; inactive means T/C below 125%.

Tested on: L1210 leukemia ip in BDF1 mice, survival T/C
Experiment: NCI In Vivo Anticancer Drug Screen. Data for tumor model L1210 Leukemia (intraperitoneal) in B6D2F1 (BDF1) mice
Conditions: endpoint: mean survival time, higher = longer survival
Summary of the method: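 Transplantable tumor model; survival measured in treated vs vehicle control mice. Value = treated/control.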

[1] = dose: 100.0 mg/kg/injection, schedule: Q01DX009 (ip), vehicle: Klucel (hydroxypropylcellulose) (HPC)
[2] = dose: 100.0 mg/kg/injection, schedule: Q04DX003 (ip), vehicle: Klucel (hydroxypropylcellulose) (HPC)
[3] = dose: 100.0 mg/kg/injection, schedule: Q04DX003 (ip), vehicle: saline with Tween-80
[4] = dose: 200.0 mg/kg/injection, schedule: Q01DX009 (ip), vehicle: Klucel (hydroxypropylcellulose) (HPC)
[5] = dose: 200.0 mg/kg/injection, schedule: Q04DX003 (ip), vehicle: Klucel (hydroxypropylcellulose) (HPC)
[6] = dose: 200.0 mg/kg/injection, schedule: Q04DX003 (ip), vehicle: saline with Tween-80
[7] = dose: 400.0 mg/kg/injection, schedule: Q04DX003 (ip), vehicle: saline with Tween-80
[8] = dose: 100.0 mg/kg/injection, schedule: Q04DX002 (ip), vehicle: saline
[9] = dose: 200.0 mg/kg/injection, schedule: Q04DX002 (ip), vehicle: saline
[10] = dose: 100.0 mg/kg/injection, schedule: Q01DX009 (ip), vehicle: saline with Tween-80
[11] = dose: 200.0 mg/kg/injection, schedule: Q01DX009 (ip), vehicle: saline with Tween-80
[12] = dose: 100.0 mg/kg/injection, schedule: Q01DX001 (ip), vehicle: carboxymethylcellulose (CMC)
[13] = dose: 200.0 mg/kg/injection, schedule: Q01DX001 (ip), vehicle: carboxymethylcellulose (CMC)
[14] = dose: 400.0 mg/kg/injection, schedule: Q01DX001 (ip), vehicle: carboxymethylcellulose (CMC)
[15] = dose: 25.0 mg/kg/injection, schedule: Q01DX001 (ip), vehicle: Klucel (hydroxypropylcellulose) (HPC)
[16] = dose: 50.0 mg/kg/injection, schedule: Q01DX001 (ip), vehicle: Klucel (hydroxypropylcellulose) (HPC)
[17] = dose: 100.0 mg/kg/injection, schedule: Q01DX001 (ip), vehicle: saline
[18] = dose: 100.0 mg/kg/injection, schedule: Q01DX009 (ip), vehicle: saline
[19] = dose: 200.0 mg/kg/injection, schedule: Q01DX009 (ip), vehicle: saline
[20] = dose: 400.0 mg/kg/injection, schedule: Q01DX009 (ip), vehicle: saline
[21] = dose: 100.0 mg/kg/injection, schedule: Q01DX001 (ip), vehicle: Klucel (hydroxypropylcellulose) (HPC)
[22] = dose: 200.0 mg/kg/injection, schedule: Q01DX001 (ip), vehicle: saline
[23] = dose: 200.0 mg/kg/injection, schedule: Q01DX001 (ip), vehicle: Klucel (hydroxypropylcellulose) (HPC)

Measured: T/C

O=C(/C=C\c1ccc2c(c1)OCO2)/C=C/c1ccc2c(c1)OCO2
inactive: [1] 97 % of control | [2] 92 % of control | [3] 97 % of control | [4] 88 % of control | [5] 101 % of control | [6] 94 % of control | dose: 400.0 mg/kg/injection, schedule: Q01DX009 (ip), vehicle: Klucel (hydroxypropylcellulose) (HPC) 87 % of control | dose: 400.0 mg/kg/injection, schedule: Q04DX003 (ip), vehicle: Klucel (hydroxypropylcellulose) (HPC) 94 % of control | [7] 90 % of control

N#Cc1cccc(/C=C/C=C\c2ccc([N+](=O)[O-])cc2)c1
inactive: [1] 89 % of control | [4] 95 % of control

N#CCCP(CCC#N)CCCCCCP(CCC#N)CCC#N
inactive: dose: 25.0 mg/kg/injection, schedule: Q04DX003 (ip), vehicle: saline with Tween-80 97 % of control | dose: 50.0 mg/kg/injection, schedule: Q04DX003 (ip), vehicle: saline with Tween-80 90 % of control | [3] 96 % of control and 90 % of control

NC(=O)N1CCCCN1C(N)=O
inactive: [8] 99 % of control | [9] 111 % of control | dose: 400.0 mg/kg/injection, schedule: Q04DX002 (ip), vehicle: saline 92 % of control

S=c1[nH]c2c(Cl)c(Cl)c(Cl)c(Cl)c2[nH]1
inactive: [10] 90 % of control | [3] 100 % of control | [11] 95 % of control | [6] 98 % of control | [7] 102 % of control

OC1c2ccccc2C(O)C2C3C=CC(C3)C12 (stereo not drawn)
inactive: dose: 50.0 mg/kg/injection, schedule: Q01DX001 (ip), vehicle: carboxymethylcellulose (CMC) 87 % of control | [12] 97 % of control | [13] 100 % of control | [14] 97 % of control

CC1(C)Cc2cccc(OC(=O)NO)c2O1
inactive: dose: 12.5 mg/kg/injection, schedule: Q01DX001 (ip), vehicle: Klucel (hydroxypropylcellulose) (HPC) 100 % of control | [15] 96 % of control | [16] 96 % of control

CCCCN1CC2CCCC1O2 (stereo not drawn)
inactive: dose: 50.0 mg/kg/injection, schedule: Q01DX001 (ip), vehicle: saline 97 % of control | [17] 95 % of control

ClCC1COC(c2ccccc2)O1 (stereo not drawn)
inactive: dose: 5.8 mg/kg/injection, schedule: Q01DX Z (ip), vehicle: methylcellulose (MC) 112 % of control | dose: 8.8 mg/kg/injection, schedule: Q01DX Z (ip), vehicle: methylcellulose (MC) 102 % of control | dose: 13.3 mg/kg/injection, schedule: Q01DX Z (ip), vehicle: methylcellulose (MC) 115 % of control | dose: 20.0 mg/kg/injection, schedule: Q01DX Z (ip), vehicle: methylcellulose (MC) 97 % of control

CN(C)C12CCCCC1S(=O)(=O)C2 (stereo not drawn)
inactive: dose: 10.0 mg/kg/injection, schedule: Q01DX009 (ip), vehicle: saline 88 % of control | dose: 20.0 mg/kg/injection, schedule: Q01DX009 (ip), vehicle: saline 98 % of control

CC(N)(CO)C(=O)O (stereo not drawn)
inactive: [18] 100 % of control | [19] 105 % of control | [20] 107 % of control

NC(CSS(=O)(=O)O)=NCCN1CCNC1=O
inactive: dose: 100.0 mg/kg/injection, schedule: Q04DX002 (ip), vehicle: Klucel (hydroxypropylcellulose) (HPC) 100 % of control | dose: 200.0 mg/kg/injection, schedule: Q04DX002 (ip), vehicle: Klucel (hydroxypropylcellulose) (HPC) 100 % of control | dose: 400.0 mg/kg/injection, schedule: Q04DX002 (ip), vehicle: Klucel (hydroxypropylcellulose) (HPC) 97 % of control

CC1(C)N=C(N)N=C(N)N1c1cccc(OCCOc2ccccc2N)c1
inactive: [15] 101 % of control | [16] 101 % of control | [21] 98 % of control

CCCCOP(=O)(Cc1ccc(Cl)c(Cl)c1)OCCCC
inactive: dose: 100.0 mg/kg/injection, schedule: Q04DX002 (sc), vehicle: olive oil, sesame oil, peanut oil 98 % of control | dose: 200.0 mg/kg/injection, schedule: Q04DX002 (sc), vehicle: olive oil, sesame oil, peanut oil 102 % of control | dose: 400.0 mg/kg/injection, schedule: Q04DX002 (sc), vehicle: olive oil, sesame oil, peanut oil 98 % of control

N=C(N)N=Nc1ccc(NN=C(N)N)cc1
inactive: dose: 3.75 mg/kg/injection, schedule: Q01DX Z (ip), vehicle: saline 96 % of control | dose: 7.5 mg/kg/injection, schedule: Q01DX Z (ip), vehicle: saline 103 % of control | dose: 30.0 mg/kg/injection, schedule: Q01DX Z (ip), vehicle: saline 118 % of control | dose: 60.0 mg/kg/injection, schedule: Q01DX Z (ip), vehicle: saline 98 % of control and 87 % of control

COc1cc(C(=O)O)cc(OC)c1OC(C)=O
inactive: [10] 104 % of control | [11] 98 % of control | dose: 400.0 mg/kg/injection, schedule: Q01DX009 (ip), vehicle: saline with Tween-80 88 % of control

OC1C2CC3C(C2)C13 (stereo not drawn)
inactive: [18] 102 % of control | [19] 96 % of control | [20] 98 % of control

CC[n+]1cccc(C#N)c1
inactive: dose: 75.0 mg/kg/injection, schedule: Q01DX001 (ip), vehicle: saline 98 % of control | dose: 75.0 mg/kg/injection, schedule: Q04DX003 (ip), vehicle: saline 93 % of control | dose: 150.0 mg/kg/injection, schedule: Q01DX001 (ip), vehicle: saline 103 % of control | dose: 150.0 mg/kg/injection, schedule: Q04DX003 (ip), vehicle: saline 98 % of control | dose: 300.0 mg/kg/injection, schedule: Q01DX001 (ip), vehicle: saline 101 % of control

Nc1ccc(Cc2ccc(N)c(Br)c2)cc1Br
inactive: dose: 50.0 mg/kg/injection, schedule: Q01DX009 (ip), vehicle: saline 102 % of control | [17] 93 % of control | [18] 98 % of control | [22] 98 % of control

Nc1cc(Cl)cc2c1-c1c(Cl)cc(Cl)cc1C2=O
inactive: [1] 100 % of control | [2] 97 % of control | [4] 106 % of control | [5] 95 % of control

O=C(O)CNC(=O)Nc1cccc(Cl)c1
inactive: [16] 100 % of control | [21] 105 % of control | [23] 108 % of control

N=C(N)SCc1ccc([N+](=O)[O-])cc1
inactive: [17] 103 % of control | [22] 97 % of control

C=CC(C)C/C(CC)=N\NC(N)=O (stereo not drawn)
inactive: dose: 75.0 mg/kg/injection, schedule: Q01DX001 (ip), vehicle: other 98 % of control | dose: 150.0 mg/kg/injection, schedule: Q01DX001 (ip), vehicle: other 103 % of control

N#CC(C#N)=Cc1ccc([N+](=O)[O-])s1
inactive: dose: 12.5 mg/kg/injection, schedule: Q04DX002 (ip), vehicle: Klucel (hydroxypropylcellulose) (HPC) 96 % of control | dose: 25.0 mg/kg/injection, schedule: Q04DX002 (ip), vehicle: Klucel (hydroxypropylcellulose) (HPC) 100 % of control

CCCCCP(=O)(O)O
inactive: [8] 92 % of control | [9] 99 % of control

COC(=O)NCc1nc2cc3c[nH][nH]c3cc2n1
inactive: dose: 75.0 mg/kg/injection, schedule: Q01DX001 (ip), vehicle: carboxymethylcellulose (CMC) 91 % of control

O=C(C(=Nc1ccccc1)c1ccccc1)c1ccccc1
inactive: [3] 96 % of control | [6] 94 % of control

CC1(C(=O)O)CCC(C(=O)O)C1(C)C (stereo not drawn)
inactive: dose: 100.0 mg/kg/injection, schedule: Q04DX002 (ip), vehicle: saline with Tween-80 105 % of control | dose: 200.0 mg/kg/injection, schedule: Q04DX002 (ip), vehicle: saline with Tween-80 100 % of control | dose: 400.0 mg/kg/injection, schedule: Q04DX002 (ip), vehicle: saline with Tween-80 93 % of control

O=C1c2cc([N+](=O)[O-])ccc2-c2cc(Br)cc(Br)c21
inactive: [12] 93 % of control | [13] 108 % of control | [14] 98 % of control

CC(C)(C(=O)O)S(=O)(=O)O
inactive: [18] 108 % of control | [19] 97 % of control | [20] 103 % of control

Cc1ccc(-n2c(O)c(N=Nc3ccc(Br)cc3)c(=O)n(-c3ccc(Br)cc3)c2=S)cc1
inactive: [16] 100 % of control | [21] 109 % of control | [23] 106 % of control
